Data reported in ChEMBL document CHEMBL1154879, “Discovery of (thienopyrimidin-2-yl)aminopyrimidines as potent, selective, and orally available pan-PI3-kinase and dual pan-PI3-kinase/mTOR inhibitors for the treatment of cancer” (J Med Chem, 2010).
The source made the active and inactive calls. The rule behind the calls is not given here.

Legend:
[1] = Antiproliferative activity against human MCF7.1 cells expressing PI3Kalpha mutant after 3 to 4 days; type: functional, cell-based
[2] = target: Serine/threonine-protein kinase mTOR (Homo sapiens, UniProt P42345)
Mus musculus [3] = assay: Inhibition of PI3K/Akt/mTOR pathway signaling in PI3Kalpha mutant expressing human MCF7.1 cells xenografted nu/nu mouse assessed as inhibition of Akt Ser473 phosphorylation at 25 mg/kg, po qd for 21 days measured 4 hrs after last administered dose on day 21 by electrochemiluminescence assay; type: functional
Mus musculus [4] = assay: Inhibition of PI3K/Akt/mTOR pathway signaling in PI3Kalpha mutant expressing human MCF7.1 cells xenografted nu/nu mouse assessed as inhibition of S6RP Ser235/236 phosphorylation at 25 mg/kg, po qd for 21 days measured 1 hr after last administered dose on day 21 by electrochemiluminescence assay; type: functional
[5] = AUC in nu/nu mouse at 5 mg/kg, po; type: ADME, organism-based; design: dose 5 mg/kg, route oral; conditions: plasma
[6] = Half life in nu/nu mouse at 5 mg/kg, po; type: ADME, organism-based; design: dose 5 mg/kg, route oral; conditions: in vivo
PC-3 = assay: Antiproliferative activity against human PC3 cells deficient in PTEN in after 3 to 4 days; type: functional, cell-based
MCF7.1 = assay: Antitumor activity against human MCF7.1 cells expressing PI3Kalpha mutant xenografted in nu/nu mouse assessed as inhibition of tumor growth at 25 mg/kg, po qd for 21 days; type: functional, organism-based; design: dose 25 mg/kg
[7] = Oral bioavailability in nu/nu mouse at 5 mg/kg, po; type: ADME, organism-based; conditions: in vivo
[8] = target: Phosphatidylinositol 4,5-bisphosphate 3-kinase catalytic subunit beta isoform (Homo sapiens, UniProt P42338); assay: Inhibition of recombinant PI3Kbeta assessed as PIP3 product formation by fluorescence polarization assay
Mus musculus [9] = assay: Inhibition of PI3K/Akt/mTOR pathway signaling in PI3Kalpha mutant expressing human MCF7.1 cells xenografted nu/nu mouse assessed as inhibition of Akt Ser473 phosphorylation at 6.25 mg/kg, po qd for 21 days measured 4 hrs after last administered dose on day 21 by electrochemiluminescence assay; type: functional
[10] = target: Phosphatidylinositol 4-phosphate 3-kinase C2 domain-containing subunit beta (Homo sapiens) (UniProt O00750); assay: Inhibition of PIK3C2beta at 1 uM
Mus musculus [11] = assay: Inhibition of PI3K/Akt/mTOR pathway signaling in PI3Kalpha mutant expressing human MCF7.1 cells xenografted nu/nu mouse assessed as inhibition of Akt Ser473 phosphorylation at 12.5 mg/kg, po qd for 21 days measured 4 hrs after last administered dose on day 21 by electrochemiluminescence assay; type: functional
[12] = target: Phosphatidylinositol 4-kinase beta (Homo sapiens) (UniProt Q9UBF8); assay: Inhibition of PI4Kbeta at 1 uM
Mus musculus [13] = assay: Inhibition of PI3K/Akt/mTOR pathway signaling in PI3Kalpha mutant expressing human MCF7.1 cells xenografted nu/nu mouse assessed as inhibition of Pras40 Thr246 phosphorylation at 6.25 mg/kg, po qd for 21 days measured 4 hrs after last administered dose on day 21 by ELISA; type: functional
Mus musculus [14] = assay: Inhibition of PI3K/Akt/mTOR pathway signaling in PI3Kalpha mutant expressing human MCF7.1 cells xenografted nu/nu mouse assessed as inhibition of Pras40 Thr246 phosphorylation at 12.5 mg/kg, po qd for 21 days measured 4 hrs after last administered dose on day 21 by ELISA; type: functional
[15] = target: Tyrosine-protein kinase SYK (Homo sapiens, UniProt P43405); assay: Inhibition of SYK
Mus musculus [16] = assay: Inhibition of PI3K/Akt/mTOR pathway signaling in PI3Kalpha mutant expressing human MCF7.1 cells xenografted nu/nu mouse assessed as inhibition of S6RP Ser235/236 phosphorylation at 6.25 mg/kg, po qd for 21 days measured 4 hrs after last administered dose on day 21 by electrochemiluminescence assay; type: functional
Aurora kinase A = target: T1, Aurora kinase A (Homo sapiens, UniProt O14965); assay: Inhibition of Aurora A kinase
T1 sequence (O14965 whole entry): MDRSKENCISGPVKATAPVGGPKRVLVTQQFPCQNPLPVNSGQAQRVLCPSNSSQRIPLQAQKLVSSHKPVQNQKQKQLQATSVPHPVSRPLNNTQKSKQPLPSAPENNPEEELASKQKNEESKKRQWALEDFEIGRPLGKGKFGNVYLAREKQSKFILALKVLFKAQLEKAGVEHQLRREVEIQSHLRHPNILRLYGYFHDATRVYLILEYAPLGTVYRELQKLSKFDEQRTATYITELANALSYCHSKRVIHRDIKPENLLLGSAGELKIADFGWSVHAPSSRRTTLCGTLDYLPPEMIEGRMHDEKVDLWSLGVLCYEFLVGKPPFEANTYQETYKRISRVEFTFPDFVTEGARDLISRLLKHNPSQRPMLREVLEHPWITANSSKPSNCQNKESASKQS

[17] = Volume of distribution at steady state in nu/nu mouse at 1 mg/kg, iv; type: ADME, organism-based; design: dose 1 mg/kg, route intravenous; conditions: in vivo, read-out: Vdss
Mus musculus [18] = assay: Inhibition of PI3K/Akt/mTOR pathway signaling in PI3Kalpha mutant expressing human MCF7.1 cells xenografted nu/nu mouse assessed as inhibition of Pras40 Thr246 phosphorylation at 12.5 mg/kg, po qd for 21 days measured 1 hr after last administered dose on day 21 by ELISA; type: functional
Mus musculus [19] = assay: Inhibition of PI3K/Akt/mTOR pathway signaling in PI3Kalpha mutant expressing human MCF7.1 cells xenografted nu/nu mouse assessed as inhibition of Akt Ser473 phosphorylation at 6.25 mg/kg, po qd for 21 days measured 1 hr after last administered dose on day 21 by electrochemiluminescence assay; type: functional
Mus musculus [20] = assay: Inhibition of PI3K/Akt/mTOR pathway signaling in PI3Kalpha mutant expressing human MCF7.1 cells xenografted nu/nu mouse assessed as inhibition of Pras40 Thr246 phosphorylation at 25 mg/kg, po qd for 21 days measured 1 hr after last administered dose on day 21 by ELISA; type: functional
[21] = Clearance in nu/nu mouse at 1 mg/kg, iv; type: ADME, organism-based; design: dose 1 mg/kg, route intravenous; conditions: in vivo
[22] = Antitumor activity against human MCF7.1 cells expressing PI3Kalpha mutant xenografted in nu/nu mouse assessed as inhibition of tumor growth at 50 mg/kg, po qd for 21 days; type: functional; conditions: MCF7.1, 504 h, read-out: TGI
[23] = Antitumor activity against human MCF7.1 cells expressing PI3Kalpha mutant xenografted in nu/nu mouse assessed as inhibition of tumor growth at 6.25 mg/kg, po qd for 21 days; type: functional; conditions: MCF7.1, 504 h, read-out: TGI
Mus musculus [24] = assay: Toxicity in human MCF7.1 cells expressing PI3Kalpha mutant xenografted nu/nu mouse assessed as body weight loss at 25 mg/kg, po qd for 21 days; type: organism-based; design: dose 25 mg/kg, route oral; conditions: in vivo, 504 h
[25] = target: Mitogen-activated protein kinase kinase kinase 9 (Homo sapiens, UniProt P80192); assay: Inhibition of MLK1
Mus musculus [26] = assay: Toxicity in human MCF7.1 cells expressing PI3Kalpha mutant xenografted nu/nu mouse assessed as body weight loss at 6.25 mg/kg, po qd for 21 days; type: organism-based; design: dose 6.25 mg/kg, route oral; conditions: in vivo, 504 h

Mitogen-activated protein kinase kinase kinase 9, sequence (P80192 whole entry): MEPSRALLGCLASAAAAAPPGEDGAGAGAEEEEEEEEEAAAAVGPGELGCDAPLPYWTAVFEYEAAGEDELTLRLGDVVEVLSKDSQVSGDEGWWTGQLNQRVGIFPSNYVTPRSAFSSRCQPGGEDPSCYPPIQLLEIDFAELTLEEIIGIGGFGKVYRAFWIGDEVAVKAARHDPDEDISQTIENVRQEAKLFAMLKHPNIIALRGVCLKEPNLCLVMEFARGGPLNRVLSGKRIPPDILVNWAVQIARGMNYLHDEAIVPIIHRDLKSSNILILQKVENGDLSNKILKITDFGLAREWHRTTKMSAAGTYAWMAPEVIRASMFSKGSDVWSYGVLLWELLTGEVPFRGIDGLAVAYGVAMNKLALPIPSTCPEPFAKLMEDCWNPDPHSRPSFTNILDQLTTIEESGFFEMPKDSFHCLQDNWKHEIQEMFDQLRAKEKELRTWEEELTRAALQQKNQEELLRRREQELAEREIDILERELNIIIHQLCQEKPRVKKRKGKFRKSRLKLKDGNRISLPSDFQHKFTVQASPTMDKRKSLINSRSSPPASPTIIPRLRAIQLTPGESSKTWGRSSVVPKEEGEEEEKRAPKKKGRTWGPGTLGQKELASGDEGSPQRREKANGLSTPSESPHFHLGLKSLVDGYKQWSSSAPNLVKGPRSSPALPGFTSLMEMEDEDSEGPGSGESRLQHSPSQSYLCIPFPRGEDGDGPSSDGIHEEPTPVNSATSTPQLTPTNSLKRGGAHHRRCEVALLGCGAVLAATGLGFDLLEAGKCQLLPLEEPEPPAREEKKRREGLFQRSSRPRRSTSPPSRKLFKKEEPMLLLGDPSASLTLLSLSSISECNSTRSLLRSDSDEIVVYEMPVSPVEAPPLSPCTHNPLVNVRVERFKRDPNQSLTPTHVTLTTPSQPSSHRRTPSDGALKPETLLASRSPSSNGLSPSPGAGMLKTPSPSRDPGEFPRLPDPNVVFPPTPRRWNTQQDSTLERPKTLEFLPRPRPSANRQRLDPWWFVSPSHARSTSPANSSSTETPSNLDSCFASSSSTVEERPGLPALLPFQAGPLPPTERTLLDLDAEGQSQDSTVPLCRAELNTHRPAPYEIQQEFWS
Phosphatidylinositol 4,5-bisphosphate 3-kinase catalytic subunit beta isoform, sequence (P42338 whole entry, canonical isoform): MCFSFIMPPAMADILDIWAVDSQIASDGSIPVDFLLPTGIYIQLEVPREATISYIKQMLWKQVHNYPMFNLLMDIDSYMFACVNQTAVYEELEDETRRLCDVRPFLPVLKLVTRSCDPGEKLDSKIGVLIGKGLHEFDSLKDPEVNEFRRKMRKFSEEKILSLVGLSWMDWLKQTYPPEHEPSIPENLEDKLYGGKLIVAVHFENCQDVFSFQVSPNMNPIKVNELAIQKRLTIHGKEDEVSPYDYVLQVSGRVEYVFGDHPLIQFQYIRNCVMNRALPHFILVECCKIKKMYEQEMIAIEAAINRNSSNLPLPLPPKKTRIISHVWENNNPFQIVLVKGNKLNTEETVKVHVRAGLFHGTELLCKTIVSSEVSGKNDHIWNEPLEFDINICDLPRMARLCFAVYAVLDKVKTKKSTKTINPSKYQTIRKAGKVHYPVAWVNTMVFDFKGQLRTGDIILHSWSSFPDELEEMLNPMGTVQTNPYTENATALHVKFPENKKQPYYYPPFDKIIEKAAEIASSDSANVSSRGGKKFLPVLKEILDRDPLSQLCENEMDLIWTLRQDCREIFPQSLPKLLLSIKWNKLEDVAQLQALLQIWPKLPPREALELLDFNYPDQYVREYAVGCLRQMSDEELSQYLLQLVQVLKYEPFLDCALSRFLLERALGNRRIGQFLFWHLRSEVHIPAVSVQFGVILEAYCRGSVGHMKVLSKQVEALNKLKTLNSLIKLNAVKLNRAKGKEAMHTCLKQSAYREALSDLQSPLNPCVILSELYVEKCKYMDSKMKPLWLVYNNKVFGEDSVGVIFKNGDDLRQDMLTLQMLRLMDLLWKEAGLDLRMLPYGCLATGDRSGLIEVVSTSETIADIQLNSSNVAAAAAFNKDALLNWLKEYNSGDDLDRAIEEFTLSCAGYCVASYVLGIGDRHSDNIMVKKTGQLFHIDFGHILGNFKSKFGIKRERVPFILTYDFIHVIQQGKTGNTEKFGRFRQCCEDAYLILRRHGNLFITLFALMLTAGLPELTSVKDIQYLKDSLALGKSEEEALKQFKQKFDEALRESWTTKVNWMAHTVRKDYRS
Phosphatidylinositol 4-kinase beta (Homo sapiens), sequence (Q9UBF8 2-816 limits assumed): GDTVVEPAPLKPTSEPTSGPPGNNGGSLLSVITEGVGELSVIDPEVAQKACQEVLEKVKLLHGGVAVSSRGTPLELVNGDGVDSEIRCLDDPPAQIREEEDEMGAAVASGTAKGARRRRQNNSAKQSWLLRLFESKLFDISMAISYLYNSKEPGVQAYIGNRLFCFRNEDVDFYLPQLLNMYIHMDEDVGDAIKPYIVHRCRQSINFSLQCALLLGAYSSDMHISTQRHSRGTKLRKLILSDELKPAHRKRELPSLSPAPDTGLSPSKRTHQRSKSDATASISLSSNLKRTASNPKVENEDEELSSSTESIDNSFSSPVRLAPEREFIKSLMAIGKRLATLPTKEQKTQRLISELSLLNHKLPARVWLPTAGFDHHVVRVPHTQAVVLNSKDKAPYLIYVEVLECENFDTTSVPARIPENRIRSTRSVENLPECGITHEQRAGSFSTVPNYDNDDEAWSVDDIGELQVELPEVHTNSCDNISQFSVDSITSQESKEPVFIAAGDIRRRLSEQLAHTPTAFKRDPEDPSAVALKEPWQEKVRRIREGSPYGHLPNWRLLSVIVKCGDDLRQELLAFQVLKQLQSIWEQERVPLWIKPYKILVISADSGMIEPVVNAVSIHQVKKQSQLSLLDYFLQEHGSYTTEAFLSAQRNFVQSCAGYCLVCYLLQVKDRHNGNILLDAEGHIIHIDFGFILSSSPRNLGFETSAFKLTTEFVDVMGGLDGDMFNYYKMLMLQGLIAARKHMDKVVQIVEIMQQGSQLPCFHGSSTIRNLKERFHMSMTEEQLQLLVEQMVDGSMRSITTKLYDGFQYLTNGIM
Phosphatidylinositol 4-phosphate 3-kinase C2 domain-containing subunit beta (Homo sapiens), sequence (O00750 whole entry, the tested form may be a part): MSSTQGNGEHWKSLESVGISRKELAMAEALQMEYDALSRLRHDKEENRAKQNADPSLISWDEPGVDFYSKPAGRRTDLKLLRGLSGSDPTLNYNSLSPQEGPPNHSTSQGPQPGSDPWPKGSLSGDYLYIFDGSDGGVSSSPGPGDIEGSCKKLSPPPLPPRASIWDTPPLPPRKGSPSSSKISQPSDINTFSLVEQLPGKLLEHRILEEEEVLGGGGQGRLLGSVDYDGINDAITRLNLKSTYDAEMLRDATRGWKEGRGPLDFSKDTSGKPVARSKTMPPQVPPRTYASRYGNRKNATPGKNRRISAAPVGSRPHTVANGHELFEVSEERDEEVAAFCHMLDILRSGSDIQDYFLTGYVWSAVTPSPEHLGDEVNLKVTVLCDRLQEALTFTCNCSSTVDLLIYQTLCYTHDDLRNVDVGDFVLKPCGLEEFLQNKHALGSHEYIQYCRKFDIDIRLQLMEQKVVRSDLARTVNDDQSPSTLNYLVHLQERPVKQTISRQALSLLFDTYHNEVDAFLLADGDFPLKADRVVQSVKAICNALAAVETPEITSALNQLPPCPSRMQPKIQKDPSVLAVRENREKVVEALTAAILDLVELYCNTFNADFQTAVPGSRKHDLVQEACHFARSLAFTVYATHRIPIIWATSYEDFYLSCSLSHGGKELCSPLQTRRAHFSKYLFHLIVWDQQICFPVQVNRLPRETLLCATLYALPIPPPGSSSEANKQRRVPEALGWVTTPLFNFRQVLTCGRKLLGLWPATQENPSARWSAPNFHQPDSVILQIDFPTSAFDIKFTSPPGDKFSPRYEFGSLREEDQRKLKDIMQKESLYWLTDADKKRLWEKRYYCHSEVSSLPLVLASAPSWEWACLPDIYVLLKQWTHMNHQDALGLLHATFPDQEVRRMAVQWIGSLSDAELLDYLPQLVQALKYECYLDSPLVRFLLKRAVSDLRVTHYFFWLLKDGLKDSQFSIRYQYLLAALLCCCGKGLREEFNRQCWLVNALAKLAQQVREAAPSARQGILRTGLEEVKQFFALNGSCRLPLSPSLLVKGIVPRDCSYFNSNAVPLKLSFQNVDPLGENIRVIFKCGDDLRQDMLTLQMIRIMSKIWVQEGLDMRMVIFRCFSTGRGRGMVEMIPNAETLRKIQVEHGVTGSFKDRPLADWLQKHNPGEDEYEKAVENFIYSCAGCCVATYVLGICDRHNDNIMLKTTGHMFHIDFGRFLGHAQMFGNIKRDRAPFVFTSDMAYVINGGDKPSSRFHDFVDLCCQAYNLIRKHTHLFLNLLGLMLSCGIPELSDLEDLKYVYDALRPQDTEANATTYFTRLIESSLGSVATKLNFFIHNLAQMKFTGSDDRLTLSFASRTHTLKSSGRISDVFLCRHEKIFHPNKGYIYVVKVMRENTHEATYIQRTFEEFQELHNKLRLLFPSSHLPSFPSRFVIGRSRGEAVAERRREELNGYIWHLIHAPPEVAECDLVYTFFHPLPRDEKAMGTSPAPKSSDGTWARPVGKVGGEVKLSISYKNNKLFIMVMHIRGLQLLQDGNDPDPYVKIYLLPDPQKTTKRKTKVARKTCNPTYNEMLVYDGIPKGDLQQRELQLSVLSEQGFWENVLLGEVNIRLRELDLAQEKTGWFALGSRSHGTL

IC50 [2]: 750 nM | AUC [5]: 4.8 µM·h | half-life [6]: 4.6 h | IC50 (PC-3): 490 nM | bioavailability [7]: 100% | IC50 [8]: 25 nM | inhibition [10]: 81% | inhibition [12]: inactive | IC50 [15]: > 1000 nM | IC50 (Aurora kinase A): > 1000 nM | Vd [17]: 3 L/kg | clearance [21]: 51 mL/min/kg | IC50 [25]: > 1000 nM
Structure (SMILES): Cc1nc(N)ncc1-c1nc(N2CCOCC2)c2sc(C(C)(C)O)cc2n1
IC50 [1]: 280 nM | inhibition in vivo at 25 mg/kg (Mus musculus [3]): 66% | inhibition in vivo at 25 mg/kg (Mus musculus [4]): 74% | Activity (MCF7.1): Active | inhibition in vivo at 6.25 mg/kg (Mus musculus [9]): 43% | inhibition in vivo at 12.5 mg/kg (Mus musculus [11]): 48% | inhibition in vivo at 6.25 mg/kg (Mus musculus [13]): 54% | inhibition in vivo at 12.5 mg/kg (Mus musculus [14]): 90% | inhibition in vivo at 6.25 mg/kg (Mus musculus [16]): 51% | inhibition in vivo at 12.5 mg/kg (Mus musculus [18]): 100% | inhibition in vivo at 6.25 mg/kg (Mus musculus [19]): 81% | inhibition in vivo at 25 mg/kg (Mus musculus [20]): 97% | inhibition in vivo at 50 mg/kg [22]: 88% | inhibition in vivo at 6.25 mg/kg [23]: 28% | Activity (Mus musculus [24]): Non-toxic | Activity (Mus musculus [26]): Non-toxic
